Where two headings read alike, the source gives them in different places.
Legend:
Assay in all cases: CellTiter-Glo (CTG) cell proliferation assay, 72 hours
Assay type in all cases: cell-based, human
HNT-34 = conditions: for IC50: Homo sapiens
Experimental: (§1) Preparation of Solutions of Test Article: Compounds were plated into black 384-well plates (Corning Inc.) to a final DMSO volume of 0.1% assuming a maximal volume of 50 μL. A 10-point dose response starting at 10 μM with a 1:3 dilution was printed in duplicate by acoustic dispense using the EDC ATS-100 platform.
(§2) Cell Proliferation Assays: The effect of Compound 1 on the proliferation/viability of the hematological cell lines (Table 1 Table, Table 2 and Table 3), THLE-2, or PBMCs was assessed after 72 hours incubation using CTG (Promega), according to manufacturer's instructions. Hematological cell lines were dispensed into compound plates by a Multidrop™ Combi Reagent Dispenser (Thermo Scientific, Waltham, Mass.) at a concentration of 0.1 to 0.3×10^6 cells per mL in a 50 μL total volume. THLE-2 cells were seeded out at 1000 cells per well in 50 μL volume and incubated for 72 hours. At 72 hours, 25 μL per well of CTG was dispensed by a Multidrop™ Combi Reagent Dispenser and adenosine triphosphate (ATP) release by viable cells was measured as relative luminescence units after 30 minutes using the Envision platform.
(§3) Proliferation was assessed using the CellTitre-Glo® assay. Results for cultures incubated with Compound 1 were normalized to results for control cultures for each cell line. The IC50 for inhibition of cell growth by Compound 1 was determined for each cell line using ActivityBase software.
(§4) Cultures of 11 different AML cell lines were incubated 72 hours with Compound 1 at concentrations of 0.5 nM to 10 μM. Proliferation was assessed using the CellTitre-Glo® assay. Results for cultures incubated with Compound 1 were normalized to results for control cultures for each cell line. Inhibition of cell growth was also determined in THLE-2 cells at Compound 1 concentrations of 0.1 nM to 100 μM and in PBMCs at Compound 1 concentrations of 0.5 nM to […]. The Compound 1 therapeutic window was calculated using area under the curve (AUC; Activity Area [Barretina et al, Nature (2012) 483603-607] measurements (in arbitrary units) as determined using GraphPad Prism software for plots of cell proliferation vs concentration and dividing the AUC for the immortalized (but nontumorigenic) human THLE-2 hepatocyte cell line or PBMCs by the AUC for the AML cell line.

KG-1a = test system: KG-1a
Experimental: as §1, §2, §3, §4

KG-1 = test system: KG-1
Experimental: as §1, §2, §3, §4

Kasumi-1 = test system: Kasumi-1
Experimental: as §1, §2, §3, §4

MOLM-13 = test system: MOLM-13
Experimental: as §1, §2, §3, §4

MV-4-11 = test system: MV-4-11
Experimental: as §1, §2, §3, §4

NB-4 = test system: NB-4
Experimental: as §1, §2, §3, §4

OCI-AML2 = test system: OCI-AML2
Experimental: as §1, §2, §3, §4

OCI-AML3 = conditions: for IC50: liquid culture
Experimental: as §1, §2, §3, §4

U-937 = test system: U-937
Experimental: as §1, §2, §3, §4

[1] = HNT-34, AUC PBMCs divided by AUC AML cell line
[2] = HNT-34, AUC THLE-2 divided by AUC AML cell line
[3] = AUC PBMCs divided by AUC AML cell line
[4] = AUC THLE-2 divided by AUC AML cell line
[5] = KG-1, AUC PBMCs divided by AUC AML cell line
[6] = KG-1, AUC THLE-2 divided by AUC AML cell line
[7] = Kasumi-1, AUC PBMCs divided by AUC AML cell line
[8] = Kasumi-1, AUC THLE-2 divided by AUC AML cell line
[9] = MOLM-13, AUC PBMCs divided by AUC AML cell line
[10] = MOLM-13, AUC THLE-2 divided by AUC AML cell line
[11] = MV-4-11, AUC PBMCs divided by AUC AML cell line
[12] = MV-4-11, AUC THLE-2 divided by AUC AML cell line
[13] = NB-4, AUC PBMCs divided by AUC AML cell line
[14] = NB-4, AUC THLE-2 divided by AUC AML cell line
[15] = OCI-AML2, AUC PBMCs divided by AUC AML cell line
[16] = OCI-AML2, AUC THLE-2 divided by AUC AML cell line
[17] = OCI-AML3, AUC PBMCs divided by AUC AML cell line
[18] = OCI-AML3, AUC THLE-2 divided by AUC AML cell line
[19] = U-937, AUC PBMCs divided by AUC AML cell line
[20] = U-937, AUC THLE-2 divided by AUC AML cell line

SMILES: O=C1CCC(N2Cc3cc(CNC(=O)C(F)(F)c4ccc(Cl)cc4)ccc3C2=O)C(=O)N1 (centres unmarked) [Compound 1, 2-(4-chlorophenyl)-N-((2-(2,6-dioxopiperidin-3-yl)-1-oxoisoindolin-5-yl)methyl)-2,2-difluoroacetamide]
- Therapeutic Window Method 1 As Compared with PBMCs (HNT-34; [1]): 36
- Therapeutic Window Method 2 As Compared with PBMCs (HNT-34; [1]): 21
- Therapeutic Window Method 1 As Compared with THLE-2 Cells (HNT-34; [2]): 57
- Therapeutic Window Method 2 As Compared with THLE-2 Cells (HNT-34; [2]): 79.5
- AUC (HNT-34; HNT-34, Activity Area of proliferation vs concentration, 72 hours, 0.5 nM to 10 μM): 6.9 arbitrary units
- IC50 (HNT-34; HNT-34, 72 h, read-out: Proliferation IC50 (mean ± SD)): 3 ± 1 nM
- IC50 (HNT-34; HNT-34 as sensitive positive control cell line in PBMC comparison, 72 hours, read-out: CTG IC50): 2 nM
- Therapeutic Window Method 1 As Compared with PBMCs (KG-1a; [3]): 2.6
- Therapeutic Window Method 2 As Compared with PBMCs (KG-1a; [3]): 1.5
- Therapeutic Window Method 1 As Compared with THLE-2 Cells (KG-1a; [4]): 4.1
- Therapeutic Window Method 2 As Compared with THLE-2 Cells (KG-1a; [4]): 5.7
- AUC (KG-1a; Activity Area of proliferation vs concentration, 72 hours, 0.5 nM to 10 μM): 96.9 arbitrary units
- IC50 (KG-1a; Homo sapiens, 72 h, read-out: Proliferation IC50 (mean ± SD)): 21 ± 10 nM
- IC50 (KG-1; Homo sapiens, KG-1, 72 h, read-out: Proliferation IC50 (mean ± SD)): 15 ± 6 nM
- Therapeutic Window Method 1 As Compared with PBMCs (KG-1; [5]): 3.8
- Therapeutic Window Method 2 As Compared with PBMCs (KG-1; [5]): 2.2
- Therapeutic Window Method 1 As Compared with THLE-2 Cells (KG-1; [6]): 6.0
- Therapeutic Window Method 2 As Compared with THLE-2 Cells (KG-1; [6]): 8.3
- AUC (KG-1; KG-1, Activity Area of proliferation vs concentration, 72 hours, 0.5 nM to 10 μM): 65.8 arbitrary units
- IC50 (Kasumi-1; Homo sapiens, Kasumi 1, 72 h, read-out: Proliferation IC50 (mean ± SD)): 21 ± 13 nM
- Therapeutic Window Method 1 As Compared with PBMCs (Kasumi-1; [7]): 6.6
- Therapeutic Window Method 2 As Compared with PBMCs (Kasumi-1; [7]): 3.8
- Therapeutic Window Method 1 As Compared with THLE-2 Cells (Kasumi-1; [8]): 10
- Therapeutic Window Method 2 As Compared with THLE-2 Cells (Kasumi-1; [8]): 14.5
- AUC (Kasumi-1; Kasumi-1, Activity Area of proliferation vs concentration, 72 hours, 0.5 nM to 10 μM): 37.9 arbitrary units
- IC50 (MOLM-13; Homo sapiens, MOLM-13, 72 h, read-out: Proliferation IC50 (mean ± SD)): 75 ± 33 nM
- Therapeutic Window Method 1 As Compared with PBMCs (MOLM-13; [9]): 6.3
- Therapeutic Window Method 2 As Compared with PBMCs (MOLM-13; [9]): 3.7
- Therapeutic Window Method 1 As Compared with THLE-2 Cells (MOLM-13; [10]): 9.9
- Therapeutic Window Method 2 As Compared with THLE-2 Cells (MOLM-13; [10]): 13.9
- AUC (MOLM-13; MOLM-13, Activity Area of proliferation vs concentration, 72 hours, 0.5 nM to 10 μM): 39.6 arbitrary units
- IC50 (MV-4-11; Homo sapiens, MV4-11, 72 h, read-out: Proliferation IC50 (mean ± SD)): 29 ± 10 nM
- Therapeutic Window Method 1 As Compared with PBMCs (MV-4-11; [11]): 12
- Therapeutic Window Method 2 As Compared with PBMCs (MV-4-11; [11]): 7.1
- Therapeutic Window Method 1 As Compared with THLE-2 Cells (MV-4-11; [12]): 19
- Therapeutic Window Method 2 As Compared with THLE-2 Cells (MV-4-11; [12]): 26.8
- AUC (MV-4-11; MV-4-11, Activity Area of proliferation vs concentration, 72 hours, 0.5 nM to 10 μM): 20.5 arbitrary units
- IC50 (NB-4; Homo sapiens, NB-4, 72 h, read-out: Proliferation IC50 (mean ± SD)): 17 ± 5 nM
- Therapeutic Window Method 1 As Compared with PBMCs (NB-4; [13]): 17
- Therapeutic Window Method 2 As Compared with PBMCs (NB-4; [13]): 10.1
- Therapeutic Window Method 1 As Compared with THLE-2 Cells (NB-4; [14]): 27
- Therapeutic Window Method 2 As Compared with THLE-2 Cells (NB-4; [14]): 38.1
- AUC (NB-4; NB-4, Activity Area of proliferation vs concentration, 72 hours, 0.5 nM to 10 μM): 14.4 arbitrary units
- IC50 (OCI-AML2; Homo sapiens, OCI-AML2, 72 h, read-out: Proliferation IC50 (mean ± SD)): 57 ± 21 nM
- Therapeutic Window Method 1 As Compared with PBMCs (OCI-AML2; [15]): 14
- Therapeutic Window Method 2 As Compared with PBMCs (OCI-AML2; [15]): 8.1
- Therapeutic Window Method 1 As Compared with THLE-2 Cells (OCI-AML2; [16]): 22
- Therapeutic Window Method 2 As Compared with THLE-2 Cells (OCI-AML2; [16]): 30.7
- AUC (OCI-AML2; OCI-AML2, Activity Area of proliferation vs concentration, 72 hours, 0.5 nM to 10 μM): 17.9 arbitrary units
- IC50 (OCI-AML3; Homo sapiens, OCI-AML-3, 72 h, read-out: Proliferation IC50 (mean ± SD), OCI-AML3, 72 hours): 3000 nM
- Therapeutic Window Method 1 As Compared with PBMCs (OCI-AML3; [17]): 0.45
- Therapeutic Window Method 2 As Compared with PBMCs (OCI-AML3; [17]): 0.3
- Therapeutic Window Method 1 As Compared with THLE-2 Cells (OCI-AML3; [18]): 0.70
- Therapeutic Window Method 2 As Compared with THLE-2 Cells (OCI-AML3; [18]): 1.0
- AUC (OCI-AML3; OCI-AML3, Activity Area of proliferation vs concentration, 72 hours, 0.5 nM to 10 μM): 563.0 arbitrary units
- IC50 (OCI-AML3; read-out: Proliferation IC50 (mean ± SD), OCI-AML3, 72 hours): 3400 ± 3330 nM
- IC50 (U-937; Homo sapiens, U-937, 72 h, read-out: Proliferation IC50 (mean ± SD)): 74 ± 25 nM
- Therapeutic Window Method 1 As Compared with PBMCs (U-937; [19]): 6.3
- Therapeutic Window Method 2 As Compared with PBMCs (U-937; [19]): 3.6
- Therapeutic Window Method 1 As Compared with THLE-2 Cells (U-937; [20]): 9.8
- Therapeutic Window Method 2 As Compared with THLE-2 Cells (U-937; [20]): 13.7
- AUC (U-937; U-937, Activity Area of proliferation vs concentration, 72 hours, 0.5 nM to 10 μM): 40.0 arbitrary units

Reference: patent publication US11590117B2, “Treatment of a hematologic malignancy with 2-(4-chlorophenyl)-n-((2-(2,6-dioxopiperidin-3-yl)-1-oxoisoindolin-5-yl)methyl)-2,2-difluoroacetamide” (priority 2016, dated 2023)
